The values below come from patent US10421780B2, “Peptide for targeting autophagic cells and use thereof” (Kyungpook National University Industry-Academic Cooperation …, priority 2015, dated 2019).

Ends that are not written are not given here.

Assay [1] deals with A549, HT1376, MDA-MB-231, HeLa and BEAS-2B cell lines. Description: Western blotting of LC3 I and LC3 II for autophagy level. Particulars: chloroquine treated together with rapamycin, 4 hours; all the cells (FIG. 1). The assay is classed as cell-based. The procedure: After 4 hours, the cells were washed two times with 1×PBS, followed by a western blotting was carried out to investigate the protein levels of LC3 I and LC3 II (hereinafter referred to as, LC3 I/II). In order to perform the western blotting, the cells were first lysed with RIPA buffer with 1/ml protease inhibitor cocktail in the drug-treated cells. The whole cell extracts were fractionated by SDS-PAGE, and transferred to a nitrocellulose membrane using a dry blot (Bio-Rad). The membranes were incubated with TBST (10 mM Tris, pH 8.0, 150 mM NaCl, 0.5% Tween 20) containing 5% nonfat milk for 60 minutes, then washed once with TBST. The membrane was treated with rabbit antibody against human LC3 I/II (abcam) and stirred overnight at 4° C. The membrane was washed 3 times for 10 min with TBST, then was incubated for 1 hour with the HRP-labeled antibody (mouse anti-rabbit IgG-HRP, Santa Cruz, Inc.) against the rabbit antibody isolated from a mouse as a secondary antibody (1:3000 dilution). After washing three times with TBST and developing according to the protocol of the manufacturer of the ECL system (Amersham Biosciences), an image was detected with a luminescent image analyzer (LAS100 Plus, Fujifilm, Japan).
A general note: A western blot detects proteins with antibodies after separation by electrophoresis.

The subject of assay [2] is autophagy cells (rapamycin-treated HeLa or MDA-MB-231 cells). Description: Immunofluorescent staining of phage clones on rapamycin-treated cells. The format is cell-based. Particulars: phage clones displaying the peptide; rapamycin 4 hr; anti-M13 immunofluorescence (FIG. 4). The protocol:
A phage clone with high specificity for binding to autophagy cells was selected through phage binding ELISA for autophagy cells. More specifically, For binding of each phage clone in vitro, cells were seeded at 2×10^4 cells/well in a 96-well culture plate and cultured in 80˜90% confluence. And then cells were treated with rapamycin in serum-free medium for 4 hours, then washed with PBS and blocked with 1% BSA for 30 minutes at room temperature. The treated cells were then incubated with each phage clone (1×10^9 pfu/well). The pool of a phage library was used as a control. After 1 hour incubation at 4° C. with a phage clone, the cells were washed again with PBS and fixed with […] (in DMEM). Next, HRP-conjugated anti-M13 phage monoclonal antibody (1:3000 dilution, NEB) was added to M13 phage and incubated at room temperature for one hour. The cells were washed three times with PBS, and the TMB substrate (100/well) was treated for 2-10 min for color development and the reaction was terminated by treatment with 2M H2SO4. The final color product was measured at 450 nm wavelength in microtitration plate reader (Sunrise, Tecan Austria) using a windows based program XFluor4.
Further, after the phage clones selected for the rapamycin-treated cells were cultured as described above, immunofluorescent staining was performed using a mouse monoclonal antibody to M13 phage (mouse anti-M13 monoclonal antibody, diluted 1:3000) and Alexa 549-labeled antibody (Alexa 549-conjugated anti-mouse IgG antibody, abcam) against the mouse antibody as a secondary antibody in a conventional manner to confirm the attachment specificity and effect of the phage clones, and used for screening. […] The four peptide sequences of the clones is as follows; CKHHLGAIC (AtgPep-1, SEQ ID NO: 1), CQQTKNYYC (AtgPep-2, SEQ ID NO: 2), CNTGSPYEC: SEQ ID NO: 3 (AtgPep-3, SEQ ID NO: 3), CPPNTDRSC (AtgPep-4, SEQ ID NO: 4). […] It was confirmed that the phage clones displaying AtgPep-1 to AtgPep-4 specifically bind to autophagy cells respectively. In particular, it was confirmed that the phage clones specifically bind to the autophagy cells even in the initial (4 hr) autophagy state.

The test system of assay [3] is HeLa cell, Chang cell and BEAS-2B cell. Nature of the assay: Detection of autophagy cells in other cell types, fluorescence microscopy. The format is cell-based. Particulars: rhodamine B labeled, BEAS-2B cells (FIG. 8). The procedure:
(§1) pEGFP-LC3-transfected MDA-MB-231 cells were cultured on an eight-chamber slide and were treated with EBSS (Earl's balanced salt solution) for 2 hours to induce autophagy. Cells were then washed with PBS and treated with 10 μmol/L of each solution of Rhodamine B-labeled AtgPep-1 to AtgPep-4 (provided in PBS diluted) and incubated at 4° C. for 1 hour. Then 1% BSA was treated at 4° C. for 1 hour. The cells were fixed with 4% paraformaldehyde for 5 minutes. The cells were then stained with […] (DAPI) and mounted on a fluorescence microscope (Zeiss, Oberkochen, Germany).
In order to verify that the peptide of the present invention acts also on other tissues or cells other than the MDA-MB-231 cell line, autophagy was induced in several kinds of cells (derived from different tissues) and their detection ability was confirmed using AtgPep-1 (CKHHLGAIC; SEQ ID NO: 1) and AtgPep-2 (CQQTKNYYC: SEQ ID NO: 2) which represent particularly high signals among AtgPep-1 to AtgPep-4. The experimental method is the same as described above.

Assay [4] relates to pEGFP-LC3-transfected MDA-MB-231 cells treated with EBSS. Description: Detection of autophagy cells in the early stages of autophagy induction, fluorescence microscopy. The assay is classed as cell-based. Particulars: for fluorescence signal on early autophagy cells: Rhodamine B-labeled peptide 10 μmol/L, 4° C. 1 hour, EBSS 2 hours (FIG. 6); for site of binding on autophagy-induced cells: rhodamine-labeled peptide, single MDA-MB-231 cell (FIGS. 7A and 7B). The protocol: as §1

The test system of assay [5] is MDA-MB-231 tumor tissue after rapamycin autophagy induction. Nature of the assay: Microscopy of tumor frozen sections for peptide target signal. To be noted: flamma 675-labeled peptide; five hours after the peptide injection; frozen sections (FIG. 10). The assay is classed as in vivo, nude mouse. The protocol: After five hours of the peptide injection, the image were acquired. Then the mice were sacrificed and the tumors were separated and frozen sections of tissues were prepared. Six μm-thickness tumor frozen sections were stained with DAPI for nuclear staining and immunostained with LC3 antibody for autophagy induction. The signal of flamma 675 (FPR675) dye, LC3 and DAPI were observed as red, green and blue under a microscope, respectively.

Assay [6] concerns MDA-MB-231 tumor after rapamycin autophagy induction. Description: In vivo NIRF imaging of autophagy in tumor animal model. Details: species or system nude mouse. To be noted: flamma 675-labeled peptide, tail vein, 50 μM; 4 to 5 hours after peptide injection; rapamycin 1.5 mg per kg i.p. (FIG. 9). The procedure:
As an experiment for monitoring and imaging autophagy using a peptide probe, tumor cells were transplanted into immunodeficient nude mice to grow tumors, and animal models for experiments were constructed. The MDA-MB-231 cell (10^6 cells), which was verified in the results of FIGS. 7A and 7B of the present invention, was injected into the femoral region of the nude mouse, and it was confirmed that the size of the tumor was 80 mm^3 after 10 days. In order to induce autophagy, rapamycin was injected intraperitoneally into each mouse in an amount of 1.5 mg per kg of the mouse. Two hours after the injection of rapamycin, AtgPep-2 (CQQTKNYYC: SEQ ID NO: 2) of the present invention, labeled with flamma 675 (=FPR675, Bioact Co., Korea), a near-infrared fluorescent (NIRF) was administered to each mouse (N=5 To 7) via tail vein at a final 50 μM concentration/mouse, while being allowed to circulate along the blood for 2 hours to obtain optical and fluorescence imaging at 2 hours, 4 hours, and 5 hours after the administration of the peptide. As a control, CNSSSVDKC peptide (Control, SEQ ID NO: 10) labeled with flamma 675 was injected at the same concentration and method. NIRF imaging signals were scanned and acquired using an IVIS imaging system (Caliper Life Sciences, Massachusetts, USA).

Regarding `CCN(CC)CCCC(C)Nc1ccnc2cc(Cl)ccc12` (centres unmarked) [chloroquine], the “production of LC3 II protein” value in assay [1] is on record as “further increased”.

Consider “CKHHLGAIC (Artificial Amino acid sequence of AtgPep-1)”, for which the “binding specificity of phage clones to autophagy cells” value (“binding specificity of phage clones” below) in assay [2] is on record as “high binding specificity to autophagy cells”. Moreover, the “targeting to autophagy cells in other cell types” value in assay [3] is listed as “specifically targeted to autophagy cells regardless of cell types”. Besides, in assay [4], the “fluorescence signal on early autophagy cells” value is reported as “strong fluorescence signals” and the “site of binding on autophagy-induced cells” value is on record as “bound to the cell membrane of the autophagy cell”.

Turning to “CNSSSVDKC (not fully specified; cysteine pairing not given here; also: flamma 675 label) [control peptide labeled with flamma 675, reference compound]”, the “target signal in the tumor tissue” value in assay [5] was “target signal was not present”.

With “CNTGSPYEC (Artificial Amino acid sequence of AtgPep-3)”, the “binding specificity of phage clones” value in assay [2] is reported as “high binding specificity to autophagy cells”.

Consider “CPPNTDRSC (Artificial Amino acid sequence of AtgPep-4)”, for which the “binding specificity of phage clones” value in assay [2] is “high binding specificity to autophagy cells”.

Regarding “CQQTKNYYC (Artificial Amino acid sequence of AtgPep-2)”, the “binding specificity of phage clones” value in assay [2] is “high binding specificity to autophagy cells”. The “tumor targeting in NIRF imaging versus control peptide” value in assay [6] is “significantly higher level”. Moreover, in assay [3], the “targeting to autophagy cells in other cell types” value is listed as “specifically targeted to autophagy cells regardless of cell types”. Further, the “target signal in the tumor tissue” value in assay [5] is “significantly higher”. Besides, in assay [4], the “fluorescence signal on early autophagy cells” value was “strong fluorescence signals” and the “site of binding on autophagy-induced cells” value was “bound to the cell membrane of the autophagy cell”.
